Measured values reported in patent publication US4847300A, “Use of alpha-2I selective adrenergic receptor agonists in memory enhancement” (priority 1986, dated 1989).
Like-named read-outs stand apart in the source and are kept apart here.

Experiments:
aged monkeys [1] = test: variable delayed response task (spatial working memory) in aged monkeys; conditions: for average optimal dose for improving memory: aged monkeys; for average optimal dose for improving memory / Optimal dose: equimolar clonidine dose; for Delayed Response Performance (% change from placebo control): mean; for Percent Improvement: at individual optimal dose; for Optimal dose: i.m.
aged monkeys [2] = test: blood pressure study in awake chaired aged monkeys; type: in vivo, rhesus monkeys; conditions: for drop in systolic blood pressure: at the high doses optimal for memory improvement; for Systolic Blood Pressure, change vs placebo control: mean
Protocol: In order to measure blood pressure in the awake, behaving monkey, three aged animals were adapted to primate chair restraint for several weeks. Blood pressure was measured using a pediatric digital blood pressure monitor. Each day the animals were […] immediately injected with the drug or saline. Fifteen minutes later, three blood pressure measurements were taken. […] Following memory testing, three more blood pressure measurements were taken before the monkey was returned to its home cage. The average blood pressure response before and after memory testing was calculated; drug response was compared to the previous response on saline Drug administration was initiated only after a stable blood pressure baseline was apparent.

alpha-2R subtype [3] = conditions: cited from earlier work
alpha-2R subtype [4] = conditions: alpha-2R vs alpha-2I
Text: Receptor binding data provides evidence for two distinct alpha-2 receptor sub-types, C. […] One subtype binds with high affinity to the antagonist idazoxan, and is referred to as the "alpha-2I subtype"; the other subtype binds with high affinity to both idazoxan and to the antagonist, rauwolscine, and is referred to as the "alpha-2R subtype".

alpha-2I subtype = conditions: second figure of the alpha-2R/alpha-2I Ki ratio; cited from earlier work
aged monkeys [5] = conditions: 0.01 to 0.09 mg/kg; background; cited from earlier work
aged monkeys [6] = conditions: early experiments, Science 230, 1273 (1985); cited from earlier work
Korsakoff patients = conditions: about 0.01 to 0.02 mg/kg/day for two weeks; cited from earlier work
rhesus monkeys = conditions: catecholamine-depleted association cortex; cited from earlier work
aged monkeys [7] = conditions: for Sedation Score (0-IV): mean; for Sedation Score: at individual optimal dose
Text: Sedation was rated using a 5 point scale where 0=normal level of arousal, I=quiet, II=sedated, III=intermittent sleeping and IV=too sedated to test.

Alzheimer patients = conditions: acute administration; study was terminated; cited from earlier work
[8] = dose .0001 mg/kg i.m. (equimolar clonidine dose)
[9] = dose .001 mg/kg i.m. (equimolar clonidine dose)
[10] = dose .01 mg/kg i.m. (equimolar clonidine dose)
[11] = dose .05 mg/kg i.m. (equimolar clonidine dose)

Q: Which “average optimal dose for improving memory” value (aged monkeys [1]) does the source give for `C=CCN1CCc2nc(N)sc2CC1` [BHT-920] here?
A: Its value is 70 µg/kg.

Q: What about the “Delayed Response Performance (% change from placebo control)” value (aged monkeys [1]; [8]) of the same compound?
A: Its value is 0%.

Q: What about the “Delayed Response Performance (% change from placebo control)” value (aged monkeys [1]; [9]) of the same compound?
A: Its value is -3%.

Q: What about the “Delayed Response Performance (% change from placebo control)” value (aged monkeys [1]; [10]) of the same compound?
A: The value was “+9%”.

Q: And the “Delayed Response Performance (% change from placebo control)” value (aged monkeys [1]; [11])?
A: The value was “+8%”.

Q: What about the “Delayed Response Performance (% change from placebo control)” value (aged monkeys [1]; dose .08 mg/kg i.m. (equimolar clonidine dose)) of the same compound?
A: Its value is “+15%”.

Q: And the “drop in systolic blood pressure” value (aged monkeys [2])?
A: Its value is “greater than 50 mm Hg”.

Q: And the “Systolic Blood Pressure, change vs placebo control” value (from here on “Systolic Blood Pressure, change”) (aged monkeys [2]; dose .0001 mg/kg i.m.)?
A: The value was -9 mm Hg.

Q: And the “Systolic Blood Pressure, change” value (aged monkeys [2]; dose .001 mg/kg i.m.)?
A: The value was -8 mm Hg.

Q: And the “Systolic Blood Pressure, change” value (aged monkeys [2]; dose .01 mg/kg i.m.)?
A: The value was -37 mm Hg.

Q: What about the “Systolic Blood Pressure, change” value (aged monkeys [2]; dose .05 mg/kg i.m.) of the same compound?
A: Its value is over -50 mm Hg.

Q: And the “hypotensive effects compared with the other agonists” value (aged monkeys [2]; monkey #445, FIG. 3)?
A: Its value is “very similar to those of clonidine”.

Q: What about the Ki (alpha-2R subtype [3]) of the same compound?
A: The Ki was 0.0622 µM.

Q: What about the “selectivity for the alpha-2R subtype” value (alpha-2R subtype [4]) of the same compound?
A: The value was “two times more selective”.

Q: What about the Ki (alpha-2I subtype) of the same compound?
A: Its Ki is 0.138 µM.

Q: For `Clc1cccc(Cl)c1N=C1NCCN1` [Clonidine, clonidine], which “side effects at memory-enhancing doses” value (aged monkeys [5]) is on record?
A: Its value is “profound hypotension and sedation”.

Q: What about the “average optimal dose for improving memory” value (aged monkeys [1]) of the same compound?
A: Its value is 50 µg/kg.

Q: And the “aged monkeys with improved memory” value (aged monkeys [1]; applicants' experiments)?
A: The value was 8.

Q: And the effect on memory (aged monkeys [1]; dose 0.0001 to 0.01 mg/kg)?
A: The effect on memory was “often impaired memory”.

Q: And the “Delayed Response Performance (% change from placebo control)” value (aged monkeys [1]; [8])?
A: The value was -6%.

Q: And the “Delayed Response Performance (% change from placebo control)” value (aged monkeys [1]; [9])?
A: Its value is “+3%”.

Q: What about the “Delayed Response Performance (% change from placebo control)” value (aged monkeys [1]; [10]) of the same compound?
A: Its value is “+6%”.

Q: What about the “Delayed Response Performance (% change from placebo control)” value (aged monkeys [1]; [11]) of the same compound?
A: The value was “+12%”.

Q: And the “Percent Improvement” value (aged monkeys [1]; monkey #107)?
A: The value was 27%.

Q: What about the Optimal dose (aged monkeys [1]; monkey #107) of the same compound?
A: The Optimal dose was 10 µg/kg.

Q: And the “Percent Improvement” value (aged monkeys [1]; monkey #113)?
A: Its value is 30%.

Q: What about the Optimal dose (aged monkeys [1]; monkey #113) of the same compound?
A: The Optimal dose was 50 µg/kg.

Q: And the “Percent Improvement” value (aged monkeys [1]; monkey #121)?
A: The value was 17%.

Q: And the Optimal dose (aged monkeys [1]; monkey #121)?
A: Its Optimal dose is 5 µg/kg.

Q: And the “Percent Improvement” value (aged monkeys [1]; monkey #124)?
A: Its value is 23%.

Q: And the Optimal dose (aged monkeys [1]; monkey #124)?
A: Its Optimal dose is 40 µg/kg.

Q: And the “Percent Improvement” value (aged monkeys [1]; monkey #343)?
A: Its value is 30%.

Q: What about the Optimal dose (aged monkeys [1]; monkey #343) of the same compound?
A: The Optimal dose was 200 µg/kg.

Q: What about the “Percent Improvement” value (aged monkeys [1]; monkey #444) of the same compound?
A: The value was 25%.

Q: And the Optimal dose (aged monkeys [1]; monkey #444)?
A: Its Optimal dose is 30 µg/kg.

Q: And the “Percent Improvement” value (aged monkeys [1]; monkey #445)?
A: Its value is 18%.

Q: What about the Optimal dose (aged monkeys [1]; monkey #445) of the same compound?
A: Its Optimal dose is 40 µg/kg.

Q: And the “Percent Improvement” value (aged monkeys [1]; monkey #446)?
A: Its value is 17%.

Q: And the Optimal dose (aged monkeys [1]; monkey #446)?
A: The Optimal dose was 80 µg/kg.

Q: And the “Percent Improvement” value (aged monkeys [1]; monkey #447)?
A: The value was 23%.

Q: What about the Optimal dose (aged monkeys [1]; monkey #447) of the same compound?
A: Its Optimal dose is 60 µg/kg.

Q: What about the “Percent Improvement” value (aged monkeys [1]; monkey #448) of the same compound?
A: The value was 30%.

Q: And the Optimal dose (aged monkeys [1]; monkey #448)?
A: The Optimal dose was 70 µg/kg.

Q: What about the “Percent Improvement” value (aged monkeys [1]; monkey #449) of the same compound?
A: Its value is 23%.

Q: What about the Optimal dose (aged monkeys [1]; monkey #449) of the same compound?
A: The Optimal dose was 1 µg/kg.

Q: And the “drop in systolic blood pressure” value (aged monkeys [2])?
A: The value was “greater than 50 mm Hg”.

Q: What about the “Systolic Blood Pressure, change” value (aged monkeys [2]; dose .0001 mg/kg i.m.) of the same compound?
A: The value was -23 mm Hg.

Q: And the “Systolic Blood Pressure, change” value (aged monkeys [2]; dose .001 mg/kg i.m.)?
A: The value was -8 mm Hg.

Q: What about the “Systolic Blood Pressure, change” value (aged monkeys [2]; dose .01 mg/kg i.m.) of the same compound?
A: Its value is -32 mm Hg.

Q: What about the “Systolic Blood Pressure, change” value (aged monkeys [2]; dose .05 mg/kg i.m.) of the same compound?
A: The value was over -50 mm Hg.

Q: What about the “aged monkeys with improved memory” value (aged monkeys [6]) of the same compound?
A: Its value is 5/5.

Q: And the Ki (alpha-2R subtype [3])?
A: The Ki was 0.0277 µM.

Q: And the “effect on memory performance” value (Korsakoff patients)?
A: Its value is “improved memory performance”.

Q: And the “effect on behavioral deficit in spatial delayed alternation” value (rhesus monkeys)?
A: The value was “pharmacologically reversed”.

Q: And the Ki (alpha-2I subtype)?
A: The Ki was 0.0381 µM.

Q: And the “Sedation Score (0-IV)” value (aged monkeys [7]; dose .0001 mg/kg i.m.)?
A: Its value is 0.

Q: And the “Sedation Score (0-IV)” value (aged monkeys [7]; dose .001 mg/kg i.m.)?
A: Its value is 0.

Q: What about the “Sedation Score (0-IV)” value (aged monkeys [7]; dose .01 mg/kg i.m.) of the same compound?
A: The value was “I”.

Q: What about the “Sedation Score” value (aged monkeys [7]; monkey #121) of the same compound?
A: The value was 0.

Q: And the “Sedation Score” value (aged monkeys [7]; monkey #445)?
A: Its value is “I”.

Q: What about the “Sedation Score” value (aged monkeys [7]; monkey #449) of the same compound?
A: Its value is 0.

Q: What about the side effects (Alzheimer patients) of the same compound?
A: Its side effects is “severe hypotension and sedation”.

Q: For `N=C(N)N/N=C/c1c(Cl)cccc1Cl` [Guanabenz, guanabenz], which “Delayed Response Performance (% change from placebo control)” value (aged monkeys [1]; dose .00000005 mg/kg i.m. (equimolar clonidine dose)) is on record?
A: Its value is “+8%”.

Q: And the “Delayed Response Performance (% change from placebo control)” value (aged monkeys [1]; dose .00001 mg/kg i.m. (equimolar clonidine dose))?
A: The value was -1%.

Q: And the “Delayed Response Performance (% change from placebo control)” value (aged monkeys [1]; [8])?
A: Its value is “+1%”.

Q: And the “Delayed Response Performance (% change from placebo control)” value (aged monkeys [1]; [9])?
A: The value was -2%.

Q: What about the “Delayed Response Performance (% change from placebo control)” value (aged monkeys [1]; [10]) of the same compound?
A: Its value is “+7%”.

Q: And the “Delayed Response Performance (% change from placebo control)” value (aged monkeys [1]; [11])?
A: Its value is “+7%”.

Q: And the “dose range in which effective” value (aged monkeys [1]; memory improvement, summary statement)?
A: The value was “picogram/kg range”.

Q: And the “doses at which memory improved” value (aged monkeys [1]; monkey #445, FIG. 3)?
A: Its value is 5e-05 to 10 µg/kg.

Q: What about the “hypotensive effects compared with the other agonists” value (aged monkeys [2]; rhesus monkey, in vivo) of the same compound?
A: Its value is “more hypotensive side effects than guanfacine, but fewer side effects than clonidine”.

Q: What about the Ki (alpha-2R subtype [3]) of the same compound?
A: Its Ki is 0.0367 µM.

Q: And the Ki (alpha-2I subtype)?
A: Its Ki is 0.0053 µM.

Q: What about the “Sedation Score (0-IV)” value (aged monkeys [7]; dose .00000005 mg/kg i.m.) of the same compound?
A: Its value is 0.

Q: What about the “Sedation Score (0-IV)” value (aged monkeys [7]; dose .00001 mg/kg i.m.) of the same compound?
A: The value was 0.

Q: What about the “Sedation Score (0-IV)” value (aged monkeys [7]; dose .0001 mg/kg i.m.) of the same compound?
A: Its value is 0.

Q: And the “Sedation Score (0-IV)” value (aged monkeys [7]; dose .001 mg/kg i.m.)?
A: Its value is 0.

Q: What about the “Sedation Score (0-IV)” value (aged monkeys [7]; dose .01 mg/kg i.m.) of the same compound?
A: Its value is 0.

Q: And the “Sedation Score (0-IV)” value (aged monkeys [7]; dose .05 mg/kg i.m.)?
A: The value was “I”.
